Measured values as given in patent EP2241555A1, “New RAC1 inhibitors as potential pharmacological agents for heart failure treatment” (UNIVERSITA' DEGLI STUDI DI MILANO, priority 2009, dated 2010).
Read-outs that look alike come from different tables or passages of the source.

Key:
[1] = Caco2 monolayer permeation; assay type: in vitro ADME, human; settings: human, start concentration 50 µM; for Papp at 90 min, 50 µM: Caco-2, Caco2 monolayers
Description: (§1) The permeation characteristics of the Rac1 inhibitors were determined first in the artificial system PAMPA (Parallel Artificial Membrane Permeability Assay) which uses a membrane covered with a lipid to simulate the lipid bilayer of various cell types, including intestinal epithelium and second in vitro across Caco2, a human colon carcinoma cell line seeded as monolayers onto polycarbonate membranes. The PAMPA is able to predict the ability of a compound to permeate by a passive transcellular transport through an artificial lipid layer assembled on a membrane and also allows a classification into low (flux <20%), medium (20%≤ flux ≤70%), and high (flux >70%) absorbing substances. The Caco2 assay provides a well-established in vitro model to predict the human intestinal absorption.

Caco2 = Caco2 monolayer permeation; assay type: in vitro ADME, human; settings: Caco2 monolayers, 90 min, start concentration 50 µM
Description: as §1

Rac1 [2] = biological target: T1, Rac1 (Homo sapiens, UniProt P63000); experiment: G-LISA assay of intracellular Rac1-GTP in PDGF-BB stimulated human smooth muscle cells; assay type: cell-based; settings: for remaining activity at 50 µM: Concentration 50 µm, 4 hours incubation, then PDGF-BB 10 ng/ml, Rac1-GTP detected relative to control (100), lower = more inhibition, read-out: Rac1 inhibitory activity (% vs control); for inhibitory action on Rac1 activity: G-LISA, 50 µM, statement in words
T1 construct: endogenous in cells; host or cells: human cultured smooth muscle cells, stimulated with PDGF-BB
From the text: The intracellular amount of Rac1-GTP has been determined using the GLISA™ assay (Cytoskeleton, Inc). The GLISA™ assay uses a 96-well plate coated with RBD domain of Rac1-family effector protein PAK1. […] A significant inhibition on Rac1 activity should decrease the intracellular levels of Rac1-GTP and therefore reduce the percentage of Rac1-GTP detected compared to control untreated cells.

[3] = tissue homogenate, 60 min, 10 µM
Description: (§3) The basic incubation mixture with total volume of 500 µl consisted of the following components. 100 µl liver homogenate, compound in DMSO (dimethyl sulfoxide) and 1 mM NADPH (reduced nicotinamide adenine dinucleotide phosphate), 1 mM UDPGA (uridine 5'-diphosphoglucuronic acid), 1 mM PAPS (3'-phosphoadenosine-5'-phosphosulfate) and 1 mM GSH (glutathione). The substrate concentration used was 10 µM. Two parallel incubations, one with cofactors and one without, were made. Final DMSO concentration in the incubation was 1 µM. […] Reaction was started by addition of a cofactor mixture and stopped by adding 250 µl of ice-cold acetonitrile.

[4] = system: primary rat cardiomyocytes; experiment: Resazurine cytotoxicity assay (metabolic activity), primary rat cardiomyocytes; assay type: cell-based; settings: for MVC / EC50: 24 h; for MVC: maximal viability concentration; for Cytotoxicity-Classification: 24 h exposure; for EC50: Cardiomyocyte, metabolic activity
Description: (§2) For a pre-screening of the compounds they were first tested in human hepatocellular carcinoma cells (HepG2 cells)for 24 h and to gain further information about the cytotoxic potential more specific target tissues like the mouse cardiomyocytes HL-1 and primary rat cardiomyocytes were used additionally. […] The toxicity classification has been determined by using drugs currently utilized in clinic with known toxicity profile

HL-1 cells = experiment: Apoptosis of ischemic HL-1 cardiomyocytes (TUNEL assay, flow cytometer); assay type: cell-based, mouse; settings: 100 µM; for Relative rate of apoptosis normalised to control [%]: 8 h ischemia (glucose deficient medium + hydrogen peroxide), 8h Ischemia alone 701.6, 8h Control 100
Description: To establish a cardiomyocytes based apoptosis assay, which mimics the post-ischemic damage observed after myocardial infarction, we have utilized a cardiac muscle cell line, HL-1 cells, derived from the AT-1 mouse atrial cardiomyocyte tumor lineage. The HL-1 cells were incubated in glucose deficient medium in the presence of hydrogen peroxide and either in presence or absence of compounds of the invention Apoptosis rate of ischemic HL-1 cells was normalised to the apoptosis rate of the 8h control cells under non-ischemic conditions, thus incubated with normal concentration of glucose in the absence of hydrogen peroxide. Both non-ischemic and ischemic HL-1 cultures were harvested after 8 hours. […] The apoptotic rates were then evaluated by TUNEL assay, a method for detecting DNA strand breaks in apoptotic cells by flow cytometer The solvent of the compounds, i.e DMSO, has no influence on the apoptosis rate. […] Effect of newly synthesized compounds with Rac1 inhibitory activity on apoptosis rate in HL-1 cells normalized to control (TUNEL-assay) The data are representative of two experiments.

Rac1 [5] = biological target: T1, Rac1; experiment: Classic pull down assay of Rac1-GTP in human cells; assay type: cell-based; settings: 50 and 100 µM; Figure 2
Description: Thus, a classic pull down assay was also performed in human cells incubated with 50 and 100 µM concentration of CWB024/02054

[6] = PAMPA (Parallel Artificial Membrane Permeability Assay); assay type: in vitro ADME; settings: start concentration 250 µM, diffusion period 16 h
Description: as §1
The flux rate of the compounds of the invention and the reference NSC23766 was measured from a donor compartment to an acceptor compartment across the lipid layer at a start concentration of 250 µM over a diffusion period of 16 h.

HepG2 cells = experiment: Resazurine cytotoxicity assay (metabolic activity), HepG2; assay type: cell-based, human; settings: for MVC / EC50: HepG2, 24 h; for MVC: maximal viability concentration; for Cytotoxicity-Classification: HepG2, 24 h exposure; for EC50: Homo sapiens, metabolic activity, read-out: EC50
Description: as §2

[7] = system: major drug metabolising CYPs (including CYP2C19, CYP2D6, CYP3A4); experiment: Inhibition of major drug metabolising CYP activities
From the text: The probe metabolites as in experimental For CYP2C19, a=omeprazole demethylation and b=omeprazole 5-hydroxylation; for CYP3A4, a=omeprazole 3-hydroxylation, b= omeprazole sulfonation, c=testosterone 6β-hydroxylation and d= midazolam 1'-hydroxylation.

[8] = Substrate depletion in human liver microsomes and in vitro - in vivo extrapolation; assay type: in vitro ADME; settings: for CLh: hepatic clearance; for CLh / CLint / CLtot: extrapolated to human from substrate depletion (1 µM, 60 min); for half-life at 1 µM: human, human liver microsomes; for CLint: intrinsic clearance (whole liver); for CLtot: total (systemic) clearance
Description: The remaining peak areas after 60 minutes incubation was also determined after incubation with increasing concentrations of compounds CWB021/01039 and CWB024/02054. […] The disappearances for both study compounds were also clearly cofactor dependent and thus metabolism related Calculations of pharmacokinetic (PK) parameters on the basis of substrate depletion for both study compounds (1 µM, 60 min time point) in human liver microsomes are shown in Table 6. Table 6. Kinetic in vitro - in vivo extrapolations of study compound clearances and half-lifes in human, wherein: intrinsic clearance (whole liver) = CLint; hepatic clearance = CLH; total (systemic) clearance = CLtotal; half-life = t1/2.

HL-1 = experiment: Resazurine cytotoxicity assay (metabolic activity), HL-1; assay type: cell-based, mouse; settings: for MVC / EC50: HL-1, 24 h; for MVC: maximal viability concentration; for Cytotoxicity-Classification: HL-1, 24 h exposure; for EC50: Mus musculus, metabolic activity
Description: as §2

CYP2D6 = CYP2D6 (Homo sapiens, UniProt P10635); experiment: Inhibition of CYP2D6 activity; assay type: biochemical; settings: read-out: CYP2D6 activity inhibited by
Sequence of CYP2D6 (P10635 whole entry): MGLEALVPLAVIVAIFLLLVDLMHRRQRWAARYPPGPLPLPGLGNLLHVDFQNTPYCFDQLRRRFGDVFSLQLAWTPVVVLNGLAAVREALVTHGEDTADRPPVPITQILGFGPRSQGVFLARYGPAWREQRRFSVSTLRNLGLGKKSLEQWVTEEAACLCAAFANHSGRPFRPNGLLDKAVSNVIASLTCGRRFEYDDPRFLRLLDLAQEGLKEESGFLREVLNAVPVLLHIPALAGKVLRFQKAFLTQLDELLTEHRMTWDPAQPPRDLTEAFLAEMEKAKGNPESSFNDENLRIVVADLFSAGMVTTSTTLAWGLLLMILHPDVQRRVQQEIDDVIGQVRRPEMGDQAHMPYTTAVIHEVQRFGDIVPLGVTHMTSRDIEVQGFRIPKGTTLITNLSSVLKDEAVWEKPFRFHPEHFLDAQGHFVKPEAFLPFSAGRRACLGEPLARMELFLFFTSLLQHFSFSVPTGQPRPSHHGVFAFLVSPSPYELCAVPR

[9] = Metabolic stability and metabolite identification in liver homogenates with cofactors (LC/MS); settings: liver homogenate with cofactors, 10 µM substrate, 60 min
Description: as §3

[10] = 0.1 µM initial substrate concentration
[11] = 1 µM initial substrate concentration
[12] = 10 µM initial substrate concentration

Structure (SMILES): CCN(CC)CCCC(C)Nc1nccc(Nc2ccc3[nH]ccc3c2)n1 (stereo not shown) [CWB024/02054, N2-(4-Diethylamino-1-methyl-butyl)-N4-(1H-indol-5-yl)-pyrimidine-2,4-diamine]
- Papp at 90 min, 50 µM [1]: 32.1 ± 12.4 ×10⁻⁶ cm/s
- Caco2 Classification (Caco2): high (compounds with a Papp >10 are predicted to be well absorbed (70 - 100%))
- remaining activity at 50 µM (Rac1 [2]): 58.3%
- inhibitory action on Rac1 activity (Rac1 [2]): significant end efficient inhibitory action
- remaining LC/MS peak area (relative to 0 min incubation samples, %) [3]: about 91%
- MVC [4]: 1.9 µM
- Cytotoxicity-Classification [4]: ++ (10 µM < EC50 ≤ 100 µM, medium (++))
- EC50 [4]: 17 µM
- Relative rate of apoptosis normalised to control [%] (HL-1 cells): 319.4%
- reduction of relative apoptosis (HL-1 cells; versus 8 h ischemia): approximately 50%
- reduced the intracellular content of Rac1-GTP (Rac1 [5]): over 90%
- PAMPA classification [6]: low (low (flux <20%))
- PAMPA flux [%] ± SD [6]: 6±2%
- MVC (HepG2 cells): 7.8 µM
- Cytotoxicity-Classification (HepG2 cells): ++ (10 µM < EC50 ≤ 100 µM, medium (++))
- EC50 (HepG2 cells): 33 µM
- IC50 [7]: > 10 µM
- remaining peak area after 60 minutes incubation [8, 10]: 76%
- remaining peak area after 60 minutes incubation [8, 11]: 87%
- remaining peak area after 60 minutes incubation [8, 12]: 86%
- CLh [8]: 10.63 L/h
- half-life at 1 µM [8]: 10.3 h
- CLint [8]: 0.2 L/min
- CLtot [8]: 10.81 L/h
- MVC (HL-1): 7.8 µM
- Cytotoxicity-Classification (HL-1): ++ (10 µM < EC50 ≤ 100 µM, medium (++))
- EC50 (HL-1): 56 µM
- inhibition at 10 µM (CYP2D6): 30%

Structure (SMILES): CCN(CC)CCCC(C)Nc1nccc(Nc2ccc3[nH]c(C)cc3c2)n1 (stereo not shown) [CWB021/01039, N2-(4-Diethylamino-1-methyl-butyl)-N4-(2-methyl-1H-indol-5-yl)-pyrimidine-2,4-diamine]
- Papp at 90 min, 50 µM [1]: 17.1 ± 12.5 ×10⁻⁶ cm/s
- Caco2 Classification (Caco2): high (compounds with a Papp >10 are predicted to be well absorbed (70 - 100%))
- remaining activity at 50 µM (Rac1 [2]): 81.1%
- inhibitory action on Rac1 activity (Rac1 [2]): significant end efficient inhibitory action
- remaining LC/MS peak area (relative to 0 min incubation samples, %) [3]: 33-41%
- MVC [4]: 31.3 µM
- Cytotoxicity-Classification [4]: ++ (10 µM < EC50 ≤ 100 µM, medium (++))
- EC50 [4]: 13 µM
- Relative rate of apoptosis normalised to control [%] (HL-1 cells): 511.6%
- PAMPA classification [6]: low (low (flux <20%))
- PAMPA flux [%] ± SD [6]: 5±1%
- MVC (HepG2 cells): 7.8 µM
- Cytotoxicity-Classification (HepG2 cells): ++ (10 µM < EC50 ≤ 100 µM, medium (++))
- EC50 (HepG2 cells): 21 µM
- IC50 [7]: > 10 µM
- remaining peak area after 60 minutes incubation [8, 10]: 69%
- remaining peak area after 60 minutes incubation [8, 11]: 81%
- remaining peak area after 60 minutes incubation [8, 12]: 95%
- CLh [8]: 15.14 L/h
- half-life at 1 µM [8]: 7.3 h
- CLint [8]: 0.31 L/min
- CLtot [8]: 15.32 L/h
- MVC (HL-1): 31.2 µM
- Cytotoxicity-Classification (HL-1): ++ (10 µM < EC50 ≤ 100 µM, medium (++))
- EC50 (HL-1): 24 µM
- inhibition at 10 µM (CYP2D6): 35%

Structure (SMILES): CCN(CC)CCCC(C)Nc1nccc(Nc2cnc3ccccc3c2)n1 (stereo not shown) [CWB022/02052, N2-(4-Diethylamino-1-methyl-butyl)-N4-quinolin-3-yl-pyrimidine-2.4-diamine]
- Papp at 1.5 h, 50 µM ([1]; Caco-2, Caco2 monolayers, 90 min): 8.9 ± 2.7 ×10⁻⁶ cm/s
- Caco2 Classification (Caco2): medium (compounds with Papp between 1 and 10 are moderately absorbed (20 - 70%))
- inhibitory action on Rac1 activity (Rac1 [2]): significant end efficient inhibitory action
- MVC [4]: 7.8 µM
- Cytotoxicity-Classification [4]: ++ (10 µM < EC50 ≤ 100 µM, medium (++))
- EC50 [4]: 15 µM
- Relative rate of apoptosis normalised to control [%] (HL-1 cells): 607.8%
- PAMPA classification [6]: medium (medium (20%≤ flux ≤70%))
- PAMPA flux [%] ± SD [6]: 34±4%
- MVC (HepG2 cells): 7.8 µM
- Cytotoxicity-Classification (HepG2 cells): ++ (10 µM < EC50 ≤ 100 µM, medium (++))
- EC50 (HepG2 cells): 32 µM
- MVC (HL-1): 31.2 µM
- Cytotoxicity-Classification (HL-1): ++ (10 µM < EC50 ≤ 100 µM, medium (++))
- EC50 (HL-1): 60 µM
- remaining LC/MS peak area (relative to 0 min incubation samples, %) [9]: 5%
